Tests used:
Type in all cases: in vivo
[1] = test system: Italian ryegrass (Lolium multiflorum); test: Test A postemergence, visual injury rating; conditions: 0 is no effect, 100 is complete control; for Ryegrass, Italian plant response rating: 0 to 100 scale, approximately 10 days
How it was run: (§1)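 Compounds in non-phytotoxic solvent with surfactant applied as soil spray preemergence, or postemergence to plants 2-10 cm at one- to two-leaf stage, in loam/sand. After approximately 10 days in greenhouse, injury rated visually versus untreated controls, 0 (no effect) to 100 (complete control).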

[2] = test system: wheat (Triticum aestivum); test: Test A postemergence, visual injury rating; conditions: 0 is no effect, 100 is complete control; for Wheat plant response rating: 0 to 100 scale, approximately 10 days
How it was run: as §1

[3] = test system: kochia (Kochia scoparia); test: Test A postemergence, visual injury rating; conditions: 0 is no effect, 100 is complete control; for Kochia plant response rating: 0 to 100 scale, approximately 10 days
How it was run: as §1

[4] = test system: giant foxtail (Setaria faberii); test: Test A postemergence, visual injury rating; conditions: 0 is no effect, 100 is complete control; for Foxtail, Giant plant response rating: 31 g ai/ha, 0 to 100 scale, approximately 10 days; for Foxtail, Giant plant response rating (0 to 100 scale): 125 g ai/ha
How it was run: as §1

[5] = test system: galium (catchweed bedstraw, Galium aparine); test: Test A postemergence, visual injury rating; conditions: 0 is no effect, 100 is complete control; for Galium plant response rating: 31 g ai/ha, 0 to 100 scale, approximately 10 days; for Galium plant response rating (0 to 100 scale): 125 g ai/ha
How it was run: as §1

[6] = test system: ragweed (common ragweed, Ambrosia elatior); test: Test A postemergence, visual injury rating; conditions: 0 is no effect, 100 is complete control; for Ragweed plant response rating: 0 to 100 scale, approximately 10 days
How it was run: as §1

[7] = test system: pigweed (Amaranthus retroflexus); test: Test A postemergence, visual injury rating; conditions: 0 is no effect, 100 is complete control; for Pigweed plant response rating: 0 to 100 scale, approximately 10 days
How it was run: as §1

[8] = test system: corn (Zea mays); test: Test A postemergence, visual injury rating; conditions: 0 is no effect, 100 is complete control; for Corn plant response rating: 31 g ai/ha, 0 to 100 scale, approximately 10 days; for Corn plant response rating (0 to 100 scale): 125 g ai/ha
How it was run: as §1

[9] = test system: barnyardgrass (Echinochloa crus-galli); test: Test A postemergence, visual injury rating; conditions: 0 is no effect, 100 is complete control; for Barnyardgrass plant response rating: 31 g ai/ha, 0 to 100 scale, approximately 10 days; for Barnyardgrass plant response rating (0 to 100 scale): 125 g ai/ha
How it was run: as §1

[10] = test system: blackgrass (Alopecurus myosuroides); test: Test A postemergence, visual injury rating; conditions: 0 is no effect, 100 is complete control; for Blackgrass plant response rating: 31 g ai/ha, 0 to 100 scale, approximately 10 days; for Blackgrass plant response rating (0 to 100 scale): 125 g ai/ha
How it was run: as §1

[11] = test system: sedge, umbrella (small-flower umbrella sedge, Cyperus difformis); test: Test B flooded paddy test, plant response rating; conditions: 250 g ai/ha; Flood; scale of 0 to 100 where 0 is no effect and 100 is complete control; 13 to 15 days
How it was run: (§2)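 Pots were flooded to 3 cm above the soil surface at treatment, compound applied directly to the paddy water, and that depth held throughout. Plants were kept in a greenhouse for 13 to 15 days, then visually rated against untreated controls.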

[12] = test system: ducksalad (Heteranthera limosa); test: Test B flooded paddy test, plant response rating; conditions: 250 g ai/ha; Flood; scale of 0 to 100 where 0 is no effect and 100 is complete control; 13 to 15 days
How it was run: as §2

[13] = test system: rice (Oryza sativa); test: Test B flooded paddy test, plant response rating; conditions: 250 g ai/ha; Flood; scale of 0 to 100 where 0 is no effect and 100 is complete control; 13 to 15 days
How it was run: as §2

[14] = test system: barnyardgrass (Echinochloa crus-galli); test: Test B flooded paddy test, plant response rating; conditions: 250 g ai/ha; Flood; scale of 0 to 100 where 0 is no effect and 100 is complete control; 13 to 15 days
How it was run: as §2

[15] = test system: Italian ryegrass (Lolium multiflorum); test: Test A preemergence, visual injury rating; conditions: for Plant response rating, Ryegrass, Italian: 31 g ai/ha, 0 to 100 scale, 0 no effect, 100 complete control; for Ryegrass, Italian plant response rating: 125 g ai/ha, 0 to 100 scale (0 no effect, 100 complete control)
How it was run: as §1

[16] = test system: kochia (Kochia scoparia); test: Test A preemergence, visual injury rating; conditions: for Plant response rating, Kochia: 31 g ai/ha, 0 to 100 scale, 0 no effect, 100 complete control; for Kochia plant response rating: 125 g ai/ha, 0 to 100 scale (0 no effect, 100 complete control)
How it was run: as §1

[17] = test system: giant foxtail (Setaria faberii); test: Test A preemergence, visual injury rating; conditions: for Plant response rating, Foxtail, Giant: 31 g ai/ha, 0 to 100 scale, 0 no effect, 100 complete control; for Foxtail, Giant plant response rating: 125 g ai/ha, 0 to 100 scale (0 no effect, 100 complete control)
How it was run: as §1

[18] = test system: ragweed (common ragweed, Ambrosia elatior); test: Test A preemergence, visual injury rating; conditions: for Plant response rating, Ragweed: 31 g ai/ha, 0 to 100 scale, 0 no effect, 100 complete control; for Ragweed plant response rating: 125 g ai/ha, 0 to 100 scale (0 no effect, 100 complete control)
How it was run: as §1

[19] = test system: pigweed (Amaranthus retroflexus); test: Test A preemergence, visual injury rating; conditions: for Plant response rating, Pigweed: 31 g ai/ha, 0 to 100 scale, 0 no effect, 100 complete control; for Pigweed plant response rating: 125 g ai/ha, 0 to 100 scale (0 no effect, 100 complete control)
How it was run: as §1

[20] = test system: barnyardgrass (Echinochloa crus-galli); test: Test A preemergence, visual injury rating; conditions: for Plant response rating, Barnyardgrass: 31 g ai/ha, 0 to 100 scale, 0 no effect, 100 complete control; for Barnyardgrass plant response rating: 125 g ai/ha, 0 to 100 scale (0 no effect, 100 complete control)
How it was run: as §1

Structure (SMILES)	Ryegrass, Italian plant response rating ([1]; 31 g ai/ha)	Wheat plant response rating ([2]; 31 g ai/ha)	Kochia plant response rating ([3]; 31 g ai/ha)	Foxtail, Giant plant response rating [4]	Foxtail, Giant plant response rating (0 to 100 scale) [4]	Galium plant response rating [5]	Galium plant response rating (0 to 100 scale) [5]	Ragweed plant response rating ([6]; 31 g ai/ha)	Pigweed plant response rating ([7]; 31 g ai/ha)	Corn plant response rating [8]	Corn plant response rating (0 to 100 scale) [8]	Barnyardgrass plant response rating [9]	Barnyardgrass plant response rating (0 to 100 scale) [9]	Blackgrass plant response rating [10]	Blackgrass plant response rating (0 to 100 scale) [10]	Plant response rating, Sedge, Umbrella [11]	Plant response rating, Ducksalad [12]	Plant response rating, Rice [13]	Plant response rating, Barnyardgrass [14]	Plant response rating, Ryegrass, Italian [15]	other results
CCCCC(=O)c1c(C#N)cccc1Oc1ncc(Cl)cn1 [Compound 68]	0	0	20	20	30	20	60	0	20	10	20	10	30	10	30	0	0	0	0	0	Ryegrass, Italian plant response rating (0 to 100 scale) ([1]; 125 g ai/ha): 0; Wheat plant response rating (0 to 100 scale) ([2]; 125 g ai/ha): 0; Kochia plant response rating (0 to 100 scale) ([3]; 125 g ai/ha): 40; Ragweed plant response rating (0 to 100 scale) ([6]; 125 g ai/ha): 20; Pigweed plant response rating (0 to 100 scale) ([7]; 125 g ai/ha): 90; Ryegrass, Italian plant response rating [15]: 0; Plant response rating, Kochia [16]: 0; Kochia plant response rating [16]: 30; Plant response rating, Foxtail, Giant [17]: 10; Foxtail, Giant plant response rating [17]: 80; Plant response rating, Ragweed [18]: 0; Ragweed plant response rating [18]: 0; Plant response rating, Pigweed [19]: 20; Pigweed plant response rating [19]: 80; Plant response rating, Barnyardgrass [20]: 10; Barnyardgrass plant response rating [20]: 70
CC(=NOC(C)C)c1c(C#N)cccc1Oc1ncc(Cl)cn1 [Compound 69]	0	0	20	20	30	40	60	0	40	0	20	10	70	10	30	80	75	20	0	0	Ryegrass, Italian plant response rating ([1]; 125 g ai/ha): 0; Wheat plant response rating ([2]; 125 g ai/ha): 0; Kochia plant response rating ([3]; 125 g ai/ha): 40; Ragweed plant response rating ([6]; 125 g ai/ha): 0; Pigweed plant response rating ([7]; 125 g ai/ha): 80; Ryegrass, Italian plant response rating [15]: 0; Plant response rating, Kochia [16]: 0; Kochia plant response rating [16]: 30; Plant response rating, Foxtail, Giant [17]: 40; Foxtail, Giant plant response rating [17]: 70; Plant response rating, Ragweed [18]: 0; Ragweed plant response rating [18]: 0; Plant response rating, Pigweed [19]: 40; Pigweed plant response rating [19]: 100; Plant response rating, Barnyardgrass [20]: 70; Barnyardgrass plant response rating [20]: 90
CCCSC(=O)c1c(Br)cccc1Oc1ncc(Cl)cn1 [Compound 70]	0	0	20	0	30	30	70	0	10	10	10	0	30	0	20	80	70	0	0	0	Ryegrass, Italian plant response rating ([1]; 125 g ai/ha): 20; Wheat plant response rating ([2]; 125 g ai/ha): 0; Kochia plant response rating ([3]; 125 g ai/ha): 70; Ragweed plant response rating ([6]; 125 g ai/ha): 20; Pigweed plant response rating ([7]; 125 g ai/ha): 20; Ryegrass, Italian plant response rating [15]: 0; Plant response rating, Kochia [16]: 0; Kochia plant response rating [16]: 0; Plant response rating, Foxtail, Giant [17]: 0; Foxtail, Giant plant response rating [17]: 60; Plant response rating, Ragweed [18]: 0; Ragweed plant response rating [18]: 0; Plant response rating, Pigweed [19]: 0; Pigweed plant response rating [19]: 0; Plant response rating, Barnyardgrass [20]: 0; Barnyardgrass plant response rating [20]: 20

From patent US11053204B2, “Pyrimidinyloxy benzene derivatives as herbicides” (FMC Corporation, priority 2015, dated 2021)
